Results on two compounds are retold here after patent publication US5985926A, “Method for inhibiting intracellular viral replication” (Cell Therapeutics, Inc., priority 1997, dated 1999).

The subject of data set [1] is HIV-LTR promoter (tat transactivation) in 293-EBNA cells. Description: AP reporter gene expression from HIV-LTR promoter with tat expression vector, 293-EBNA cells. It counts as cell-based, HIV; human cells. From the text: The plasmid construct, pHIV.AP, using the human immunodeficiency virus (HIV) long terminal repeat (LTR) promoter (derived from pU3R-III CAT, Sodroski et al., Science 227:171, 1985) to direct the expression of the sPAP reporter gene, was made by replacing the CMV promoter region from pCMV.AP with the HIV-LTR promoter. PHIV.AP was co-transfected with pSV2tat72, an expression vector for the 72 amino acids tat protein from HIV (Frankel and Pabo, Cell 55:1189-1193, 1988), into 293-EBNA cells (Invitrogen). The cultured cells were treated with various concentrations of the compounds. The expression of the alkaline phosphatase (AP) reporter gene in the individual cultures was measured by following change in absorbance at 405 nm of the cell conditioned media in the presence of a suitable substrate (e.g., ortho-nitrophenol phosphate) (Berger et al., Gene 66:1-10, 1988).
We set up a cell-based system with a cell line cotransfected with an expression plasmid using HIV-1-LTR promoter to direct synthesis of AP reporter gene and an expression plasmid to direct synthesis of the first 72 amino acids of tat protein. Plasmid pREP7 (Invitrogen) was converted to pREP7b by deleting 2,040 bp EBNA-1 coding region and by replacing the pBR322 origin of replication (ori) with the pBluescript KS (Stratagene) ori region. The cDNA for secreted placental alkaline phosphatase (AP) was generated by PCR with the primers (5'-[…]-3')(SEQ ID NO. 3) and (5'-[…]-3') (SEQ ID NO. 4)using the plasmid pGEM-4Z/PLAP489 (American Type Culture Collection) as the template. The 2,000 bp Xba I-Sal I fragment obtained was ligated into a Nhe I/Xho I vector derived from pREP7b to generate the plasmid pREP7b.AP. The 44 bp Xba I-Bgl II fragment from plasmid pMEP4 (Invitrogen)and the 36 bp BamH I-Kpn I fragment from pREP7 were ligated into the Xba I-Kpn I vector fragment from pREP7b.AP to generate the plasmid pMCS.AP. The 720 bp Xho I-Hind III fragment encoding the HIV-LTR promoter from the plasmid pU3R-III-CAT (Sodroski et al., Science 227:171-173, 1985) was ligated into the Xho I-Hind III vector fragment of PMCS.AP to generate the plasmid pHIV.AP. The CMV promoter was derived from the 600 bp Spe I-Asp718 I fragment from pCEP4 (Invitrogen). The 360 bp SV40 early promoter fragments were produced from pSV2tat72 (Frankel et al., Cell 55:1189-1193,1988) by PCR using the primers (5'-[…]-3') (SEQ ID NO. 5) and (5'-[…]-3') (SEQ ID NO. 6). The 480 bp phosphoglycerate kinase (PGK) promoter fragment was amplified from human placental genomic DNA (Promega, Madison, Wis.) based on published sequence (Pfeifer et al., Science 246:810-813, 1990) using the primers (5'-[…]-3') (SEQ ID NO. 7) and (5'-[…]-3') (SEQ ID NO. 8). The above fragments were ligated into the Xba I-Asp718 I vector fragment of pHIV.AP to generate pHIV2.AP, pHIV3.AP, pCMV.AP, pSVE.AP and PPGK.AP respectively. The tat-expression plasmid directed by HIV-LTR promoter, pHIV.tat, was generated by inserting the 400 bp EcoRV-HindIII fragment from pHIV.AP into the PvuII-HindIII vector fragment from pSV2tat72 (Frankel et al., Cell 55:1189-1193, 1988).
Transient transfections with various expression plasmids were performed on a human kidney embryonic cell line 293-EBNA (Invitrogen) using the cationic lipid DOTAP (Boehringer Mannheim). The cell culture media were changed 24 hr after transfection into a serum-free medium AIM V (Life Technologies) before addition of compounds or TNF-α (PeproTech) at the appropriate concentrations. AP activity measured by a colorimetric assay (Berger et al., Gene 66:1-10, 1988) was performed 19-24 hr later.
(In general: Reporter assays use an easily measured gene product as a stand-in for the process of interest.)

Data set [2] can be described thus: Viability of 293-EBNA cells (dye not stated). Particulars: human.
Data set [3] concerns HIV-LTR promoter in 293-EBNA cells. Description: AP reporter expression in 293-EBNA cells with HIV-LTR plasmids, TNF-α stimulation. In kind it is cell-based, HIV; human cells. The method, then: FIG. 14 illustrates the effect of tat and TNF-α on HIV-LTR-mediated reporter gene expression in 293-EBNA cells. The y-axis refers to the relative amount of AP reporter gene activity present in the culture media of 293-EBNA cells after transient transfection with various plasmids. Freshly trypsinized 293-EBNA cells at 10^4 cells per sample were transfected with 2 μg of either pHIV.AP, pHIV2.AP, or pHIV3.AP alone or in combination with pSV2tat72 or pHIV.tat using the cationic lipid DOTAP. The plasmids pHIV.AP, pHIV2.AP, and pHIV3.AP contain nucleotides -453 to +80, -107 to +80, and -80 to +80 of the HIV-LTR sequence respectively. Transfected cells were plated in 96-well microtiter plates at 2,000 cells per well. The cell culture media were changed 24 hr later into new medium. The samples were incubated for another 24 hr with or without TNF-α (20 ng/ml). 2 μl of medium from each well was used for AP assay. The height of each column represents the mean of triplicate samples with error bar indicating the standard deviation of the mean.
AP reporter gene activity expressed in 293-EBNA cells transfected with either pHIV.AP alone or in combination with pSV2tat72, pHIV.tat or with TNF-α stimulation is shown in FIG. 14. The plasmid pHIV.AP contains the full-length HIV-LTR sequence that extends from nucleotides -453 to +80. The expression level of AP was low using the pHIV.AP construct alone, indicating the presence of negative regulatory elements in the HIV-LTR sequence. Induction with TNF-α increased the AP expression level by about 4 fold. The AP expression level increased by 15 to 70 fold in the presence of the tat expression plasmids pHIV.tat or pSV2tat72. […] TNF-α and tat in combination enhanced the AP expression level by two fold when using the pSV2tat72 construct, and by ten fold when using the pHIV.tat construct, but the final levels of AP activity were similar.

A further data set has as its system AP mRNA in 293tat cells. Description: AP mRNA level in 293tat cells, Northern blot. In kind it is cell-based, human. Particulars: with TNF-α or IL-1β. On the procedure:
(§1) Nuclear extracts (A) from 293tat cells were tested by EMSA for activation of NFκB. A radiolabeled 40-mer covering the NFκB sequences in the HIV promoter was used as a probe. Cells were incubated with CT2576 at 12 μM, human TNF-α at 40 ng/ml or IL-1β at 1 ng/ml, or pre-incubated for 30 min. with CT2576 and then stimulated with TNF-α or IL-1β for 18 hr prior to making extracts. RNA was extracted from 293tat cells (B) after treatment with CT2576 without or with TNF-α or IL-1β for 18 hr. Northern blots analysis were performed using probes derived from AP cDNA and G3PDH cDNA as a control for normalization of mRNA level. AP activity was determined in cell supernatants from the various samples.
(§2) NFκB binding activity in nuclear extracts (Dignam et al., Nucleic Acids Res. 11:1475-1489, 1983) of cells was measured by electrophoretic mobility-shift assay (EMSA) (Carthew et al., Cell 43:439-448, 1985) using 5'-labeled double-stranded synthetic DNA with two NF-κB motifs. Northern blot analysis was performed with total RNA run on 1% agarose/formaldehyde gel and probed with ^32 P-labeled cDNA of AP and glyceraldehyde-3-phosphate dehydrogenase (G3PDH).

For data set [4], the system named is phosphatidic acid (PA) subspecies in 293tat cells. Description: PA composition of 293tat cells by HPLC. In kind it is cell-based, human. On the procedure:
One must first quantitatively and qualitatively separate PAs from the other lipids found in serum by a chemical extraction of lipids and high performance liquid chromatography (HPLC) to separate and detect PAs. […] Briefly, the method of Bligh et al. involves an organic extraction of lipids from biological tissue homogenates or fluids. One volume of sample and three volumes of methanol:chloroform (2:1) are vigorously shaken for 2 min. One volume of chloroform is added and then shaken vigorously for 30 sec. One volume of water is added and then shaken vigorously for 30 sec. The mixture is filtered and the upper aqueous layer is discarded. The lower organic layer contains a mixture of lipid classes. The method of Folch et al. involves the extraction of lipids from biological tissue homogenates or body fluids. One volume of sample plus 20 volumes of chloroform:methanol (2:1) are vigorously shaken for 2 min. The mixture is filtered and an amount of 0.1 N KCl equal to 20% of the extraction mixture volume is added and the mixture is shaken vigorously for 2 min. The aqueous and organic phases are allowed to separate. The upper aqueous layer is discarded. The lower organic layer contains a mixture of lipid classes. […] This method involves separation of lipids into their major classes by normal phase (silica) high performance liquid chromatography (HPLC). A 5 micron, 25 cm×0.45 cm silica HPLC column is connected to a binary solvent delivery system followed with a UV detector. The lipid sample is injected on the column and a solvent gradient is run at 1.0 ml/min. The solvent gradient is hexane:isopropanol:water in the proportions 3:4:0.75 run isocratically for 3 min, then ramped to hexane:isopropanol:water in the proportions 3:4:1.4 in 15 min, then run isocratically at the same proportions for 15 min. Detection is at 206 nm.
One of the steps after cell activation involves the hydrolysis of phosphatidylcholine (PC), the major phospholipid of cellular membranes, by phospholipases C and D, leading to the generation of second messengers, such as PA and DG, in the signal transduction cascade.

Another data set concerns NFκB. Description: NFκB activation in 293tat cells, electrophoretic mobility shift assay. It counts as cell-based, human. Particulars: CT2576 12 μM, TNF-α 40 ng/ml or IL-1β 1 ng/ml. The method, then: as §1, §2

For `CCCCCCCCCCCCNCC(O)CCCCCCCn1c(=O)c2c(ncn2C)n(C)c1=O` (stereo not shown) [CT2573, 1-(9-dodecylamino-8-hydroxynonyl)-3,7-dimethylxanthine], the “inhibition of AP expression (HIV-LTR promoter)” value in data set [1] (293-EBNA cells, HIV promoter, in words) is given as “did not affect AP activity”. Further, the IC50 in data set [1] (Homo sapiens, 293-EBNA, read-out: concentration inhibiting AP expression by 50%) is 1 to 4 µM. The CC50 (commonly the concentration at which the toxic effect on the cells reaches its halfway point) in data set [2] was around 5 µM.

Turning to TNF-α, the “fold enhancement of AP expression by TNF-α with pHIV.tat” value in data set [3] (TNF-α and tat in combination, pHIV.tat construct) is “ten”. For the same compound, the “fold enhancement of AP expression by TNF-α with pSV2tat72” value in data set [3] (TNF-α and tat in combination, pSV2tat72 construct) is recorded as “two”. In addition, in data set [3] (pHIV.AP alone), the “fold increase of AP expression level by TNF-α” value was “about 4 fold”. The “AP transcript / mRNA steady-state level” value in the data set with AP mRNA in 293tat cells is on record as “induction of AP transcripts”. For the same compound, the “increase of C14-16 saturated acyl chain PA peak” value in data set [4] (TNF-α 45 sec) is “up to 80%”. The “C14-16 saturated PA peak, share of total far UV absorbing lipids after TNF-α” value in data set [4] (TNF-α 45 sec (from 5.4%)) was determined as 9%. In addition, the “activation of NFκB” value with NFκB is recorded as “NFκB was activated”.
